{"source": "patent US8841073B2", "about": "“Methods for identifying RNA segments bound by RNA-binding proteins or ribonucleoprotein complexes” (The Rockefeller University, priority 2008, dated 2014)", "key": {"[1]": {"target": "T1, FLAG/HA-tagged RBP IGF2BP1 (Homo sapiens, UniProt Q9NZI8)", "T1 construct": "expressed in transfected cells; host or cells: Flp-In T-REx HEK293 (Invitrogen), pFRT/TO/FLAG/HA-DEST, doxycycline-induced", "T1 sequence (Q9NZI8 whole entry)": "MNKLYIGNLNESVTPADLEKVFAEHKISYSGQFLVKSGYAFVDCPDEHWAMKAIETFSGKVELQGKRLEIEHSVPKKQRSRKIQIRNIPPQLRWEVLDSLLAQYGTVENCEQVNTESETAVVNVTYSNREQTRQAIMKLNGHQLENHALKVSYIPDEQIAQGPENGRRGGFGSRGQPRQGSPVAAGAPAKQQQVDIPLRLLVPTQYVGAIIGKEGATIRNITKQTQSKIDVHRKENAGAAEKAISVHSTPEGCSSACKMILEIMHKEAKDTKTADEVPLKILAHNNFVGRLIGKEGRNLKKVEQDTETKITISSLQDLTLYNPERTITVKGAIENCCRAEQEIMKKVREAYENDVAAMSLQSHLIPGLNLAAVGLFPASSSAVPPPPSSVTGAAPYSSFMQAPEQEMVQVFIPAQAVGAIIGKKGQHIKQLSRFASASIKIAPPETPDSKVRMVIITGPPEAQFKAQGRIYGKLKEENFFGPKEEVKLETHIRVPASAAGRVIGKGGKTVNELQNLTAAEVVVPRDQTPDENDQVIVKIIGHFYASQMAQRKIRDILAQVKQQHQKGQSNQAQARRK", "assay": "UV 365 nm crosslinking of RNA to FLAG/HA-IGF2BP1 in cells cultured with photoreactive nucleoside (IP, 32P-labeling, SDS gel phosphorimaging)", "assay_type": "cell-based", "conditions": "100 μM photoreactive nucleoside, 365 nm UV", "method": "FIG. 1. PURE-CLIP methodology. A Structure of photoreactive nucleosides. B Incorporation of photoreactive nucleosides to enable UV 365 nm crosslinking of RNA to RNA-binding IGF2BP1 protein. Upper panels show phosphorimages of SDS protein gels resolving 5′-32P-labeled RNA-FLAG/HA-IGF2BP1 immunoprecipitates (IPs) prepared from lysates from cells that were cultured in media in the absence or presence of 100 μM photoreactive nucleoside for 12 hrs and crosslinked with 365 nm UV. For comparison, a sample prepared from cells crosslinked at 254 nm, was included. Lower panels show immunoblots probed with an anti-HA antibody confirming uniform gel loading. C Illustration of the method. […]\nIncorporation of modified photoreactive nucleoside analogues into RNA facilitates UV crosslinking to RBPs (Meisenheimer and Koch, 1997), as shown previously for in vitro transcribed site-specifically labeled RNAs (Kirino and Mourelatos, 2008; Moore and Query, 1998). Several of these photoreactive nucleosides are excitable by longer wavelength UV (>300 nm) and are readily taken up by cells, where they are incorporated into nascent transcripts without noticeable toxicity and then can be used for in vivo crosslinking (Bezerra and Favre, 1990; Favre et al., 1986; Wagenmakers et al., 1980). […]"}, "recombinant QKI protein": {"target": "T2, recombinant QKI protein (Homo sapiens, UniProt Q96PU8)", "T2 construct": "His6 (N); made in house; host or cells: E. coli STAR(DE3)", "T2 sequence (Q96PU8 1-319 isoform Q96PU8-9)": "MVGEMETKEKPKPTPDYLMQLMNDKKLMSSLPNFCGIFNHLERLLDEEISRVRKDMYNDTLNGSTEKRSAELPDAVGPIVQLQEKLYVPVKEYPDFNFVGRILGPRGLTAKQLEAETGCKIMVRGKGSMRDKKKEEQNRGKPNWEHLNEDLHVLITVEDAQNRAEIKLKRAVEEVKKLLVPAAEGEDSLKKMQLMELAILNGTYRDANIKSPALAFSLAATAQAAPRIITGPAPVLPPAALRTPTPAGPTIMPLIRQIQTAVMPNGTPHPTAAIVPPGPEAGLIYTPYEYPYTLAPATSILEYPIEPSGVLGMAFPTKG", "assay": "UV 365 nm crosslinking of synthetic 4SU-containing oligoribonucleotides to recombinant QKI", "assay_type": "biochemical", "conditions": "4SU at position 2 vs position 3 of the recognition element", "text": "FIG. 3. RNA recognition sites of QKI protein. A Domain structure of QKI protein. B Phosphorimage of SDS polyacrylamide gel resolving radiolabeled RNA crosslinked to FLAG/HA-QKI IPs from non-irradiated or UV-irradiated 4SU-labeled cells. […] C Two alignments of PURE-CLIP cDNA sequence reads to the corresponding regions of the 3′UTRs of the Refseq CTNNB1 and HOXD13 transcripts, respectively. Red bars indicate the QKI recognition motif and red-letter nucleotides indicate T to C sequence changes. D Weblogo of the QKI recognition motif generated by PhyloGibbs analysis of the top 100 sequence read clusters. […] F Sequences of synthetic 4SU-labeled oligoribonucleotides with QKI recognition motifs, derived from a sequence read cluster aligning to the 3′UTR of HOXD13 (see c). […]\nTo better understand the […] sequence conversion after sequencing of crosslinked RNA segments, we subjected synthetic 4SU-containing oligoribonucleotides together with recombinant QKI to UV 365 nm crosslinking (FIGS. 3F, G). […] RNA-binding to recombinant QKI protein was unaffected by 4SU incorporation at U9 or U10 as determined by gel-shift analysis (FIG. 11A-B), whereas regular mutation of the recognition element weakened the binding (FIG. 11C). […]"}, "[2]": {"target": "T3, recombinant His6-QKI protein (Homo sapiens, UniProt Q96PU8)", "T3 construct": "His6 (N); made in house; host or cells: E. coli STAR(DE3)", "T3 sequence (Q96PU8 1-319 isoform Q96PU8-9)": "T2 sequence (Q96PU8 1-319 isoform Q96PU8-9)", "assay": "Electrophoretic mobility shift assay (gel-shift) with recombinant QKI", "assay_type": "binding", "method": "FIG. 11: Electrophoretic mobility shift assay (EMSA) to analyze binding of recombinant QKI to synthetic oligoribonucleotides with a sequence derived from a cluster identified by QKI PURE-CLIP. […] C Mutation of either one of the QKI binding sites (marked with red bars in the RNA-sequence) results in decreased affinity of QKI to the RNA. Mutation of both binding sites leads to complete loss of affinity of QKI to the RNA.\nRadiolabeled RNA (1 nM) was incubated with recombinant His6-QKI protein at various concentrations and 100 ng tRNA in 20 μl of 20 mM HEPES-KOH, pH 7.4, 330 mM KCl, 10 mM MgCl2, 0.1 mM EDTA and 0.01% IGEPAL CA630 (Sigma). After addition of 6 μl loading dye (40% glycerol, bromophenol blue in binding buffer), the solution was loaded onto a native 10% acrylamide gel containing 0.5×TBE, running at 200 V for 2 h at room temperature, using 0.5×TBE as running buffer. The protein-bound RNA and the free RNA were quantified using a phosphorimager."}, "[3]": {"system": "transcripts containing miR-7- or miR-124-specific CCRs", "assay": "miR-7 and miR-124 duplex transfection into HEK293 cells, mRNA stability by Affymetrix microarrays", "assay_type": "cell-based, human", "conditions": "HEK293 cells stably expressing FLAG/HA-AGO2", "text": "To allow for a comparison to such studies, we transfected miRNA duplexes corresponding to the deeply conserved miR-7 and miR-124 into HEK293 cells stably expressing FLAG/HA-AGO2 and performed PURE-CLIP. Before transfection, these miRNAs were only present in trace amounts in HEK293 cells, less than 0.2% of total miRNA abundance. We found 1,866 unique sequence read clusters in the miR-7 and 10,929 in the miR-124 transfection experiments. The CCRs isolated from miR-7 and miR-124 transfection experiments were enriched for the seed sequences of the transfected miRNA duplexes. These CCRs were predominantly exonic (87 and 88%, respectively), 28% mapped to the CDS, 57 and 59%, respectively, to the 3′UTR of mRNAs and only 3 and 2%, respectively, to the 5′UTR. miR-7 and miR-124 binding sites that were located in the CDS for miR-7 and -124 were also embedded in regions with unusual codon bias, similar to the binding sites of endogenous miRNA target sites (FIG. 31).\nThe change in mRNA stability was analyzed after miRNA duplex transfection by Affymetrix whole genome microarrays (Hausser et al., submitted). We observed that transcripts containing miR-7- or miR-124-specific CCRs were destabilized upon miRNA delivery, especially for transcripts with CCRs located in the 3′UTR (FIG. 32-33). […]"}, "[4]": {"system": "most abundant miRNAs in HEK293 cells", "assay": "miRNA inhibition by cocktail of 2'-O-methyl antisense oligoribonucleotides in HEK293 cells; seed match depletion/enrichment in down-/up-regulated transcripts (Affymetrix arrays)", "assay_type": "cell-based, human", "conditions": "antisense cocktail vs mock", "method": "All miRNAs are assumed to have U at position 1. p-values for 4 types of seeds, indicated below, were tested.\nmiRNAs are predominantly localized to the cytoplasm although a smaller fraction can be detected in nuclear extracts (Hwang et al., 2007; Meister et al., 2004; Pena et al., 2009; Robb et al., 2005; Weinmann et al., 2009). Our CCRs correspond to 84% exonic, 14% intronic, and 2% not assigned transcribed regions. This distribution is consistent with the predominant cytoplasmic function of miRNAs. Of the exonic CCRs, 50% distributed to the CDS, 46% to the 3′ UTR, and 4% to the 5′ UTR of mRNAs, with a specific enrichment in the 3′UTRs relative to what is expected based on the relative lengths of different transcript regions (FIG. 6D). The identification of such a large number of miRNA binding sites within the CDS was unexpected, because miRNA are believed to predominantly act on 3′ UTRs (Bartel, 2009), with a few reports providing evidence for miRNA-binding to 5′ UTR or CDS (Forman et al., 2008; Lytle et al., 2007; Orom et al., 2008; Tay et al., 2008). In order to determine if CCR-containing transcripts were indeed subject to miRNA-dependent regulation, we inhibited 25 of the most abundant miRNAs in HEK293 cells (FIG. 5C) with a cocktail of 2′-O-methyl-modified antisense oligoribonucleotides (FIG. 7A and see FIG. 28A-C for the efficiency of the individual antisense oligoribonucleotide). The change in relative mRNA abundance before and after miRNA inhibition was recorded by Affymetrix whole transcriptome array analysis.\nmiRNA duplexes and 2′-O-methyl oligoribonucletide transfections of HEK293 TREx Flp-In cells were carried out using Lipofectamine RNAiMAX (Invitrogen). Total RNA was isolated by TRIZOL RNA extraction. The RNA was further purified and Human Genome U133 Plus 2.0 Array (Affymetrix) analyses were performed as described previously (Landthaler et al., 2008).\nCEL files of mRNA profiles from miRNA/2′O-methyl oligonucleotide and mocktransfected cell were loaded into the R software using the BioConductor affy package (Gentleman et al., 2004). The transcript probe set intensities were background-corrected, adjusted for non-specific binding and quantile normalized with the GCRMA algorithm (Wu, 2006). Probe sets with more than 6 of the 11 probes mapping ambiguously to the genome were discarded, as were probe sets that mapped to multiple genes. We then collected all probe sets matching a given gene, and we computed the logarithm of gene-level expression as the average of the log-intensity of probe sets mapping to that gene. For sequence analyses we also selected a representative transcript for each gene. This was the Genbank transcript with median 3′ UTR length corresponding to that gene. In total this procedure gave us expression measurements for 16,063 genes (and representative transcripts). The difference between the log-expression levels of a gene in samples treated with a cocktail of 2′-O-methyl oligoribonucleotides and mock transfected cells was taken as a measure of transcript stabilization upon miRNA inhibition."}}, "note": "[4sU] = 4-thiouridine", "data": [{"molecule": "O=c1[nH]c(=S)ccn1[C@@H]1O[C@H](CO)[C@@H](O)[C@H]1O", "note": "[4SU, 4-thiouridine]", "values": [{"measurement": "crosslinking efficiency of nucleoside-labeled RNA to IGF2BP1", "setting": "[1]", "result": "crosslinked most efficiently"}]}, {"molecule": "U9: synthetic oligoribonucleotide with 4SU at position 2 of the QKI recognition element; GUAUGCCA(4sU)AACAAAUUCAUUAACAA (SEQ ID NO: 30) (GUAUGCCAUAACAAAUUCAUUAACAA; RNA, [4sU] at 9, backbone not given here)", "values": [{"measurement": "crosslinking efficiency to recombinant QKI relative to oligonucleotide U10", "setting": "recombinant QKI protein", "result": "approximately 50 times"}, {"measurement": "RNA-binding / affinity to recombinant QKI by gel-shift analysis", "setting": "[2]", "result": "unaffected"}]}, {"molecule": "U10: synthetic oligoribonucleotide with 4SU at position 3 of the QKI recognition element; GUAUGCCAU(4sU)AACAAAUUCAUUAACAA (SEQ ID NO: 31) (GUAUGCCAUUAACAAAUUCAUUAACAA; RNA, [4sU] at 10, backbone not given here)", "values": [{"measurement": "RNA-binding / affinity to recombinant QKI by gel-shift analysis", "setting": "[2]", "result": "unaffected"}]}, {"molecule": "miR-7: transfected miRNA duplex, 5'-UGGAAGACUAGUGAUUUUGUUGU / 5'-CAACAAAUCACAGUCUGCCAUA (SEQ ID NO: 66, 67) (listed as RNA, chemistry not given here)", "values": [{"measurement": "change in mRNA stability of CCR-containing transcripts after miRNA duplex transfection", "setting": "[3]", "result": "destabilized"}]}, {"molecule": "miR-378: 2'-O-methyl antisense oligoribonucleotide CCUUCUGACUCCAAGUCCAGU (SEQ ID NO: 65) (all 2'-O-methyl, backbone not given here)", "values": [{"measurement": "efficiency of the individual antisense oligoribonucleotide (inhibition of cognate miRNA)", "setting": "[4]", "result": "Marginal"}]}]}
